Results on four molecules are retold here after patent publication US20050227995A1, “Phenyl sulfoxides and phenyl sulfones” (priority 2002, published 2005).

The assay deals with Aβ release from human cell lines (H4, HEK293) stably overexpressing human APP695 with Swedish double mutation. As to the kind of experiment: Determination of the inhibition of A-beta release in cell culture (IGEN analyzer detection). The note with it: H4/HEK293 cells overexpressing human APP695 Swedish mutant; supernatant analyzed after 16 h; 0.5% DMSO. It is filed as cell-based. An excerpt:
Determination of the Inhibition of A-Beta Release in Cell Culture
In order to be able to measure the inhibition of Aβ release, human cell lines (H4, HEK293) which stably overexpress the 695 amino acid-long, neuronal splice variant of human APP were generated. In order to increase the generated Aβ amount further, in addition a “Swedish” familiar Alzheimer's double mutation in which the lysine and methionine residues respectively at positions 595 and 596 of the molecule APP695 are replaced by the amino acids asparagine and leucine was introduced. The cells were cultivated in Dulbecco's modified Eagles medium (DMEM, with 4500 mg/l glucose; 110 mg/l sodium pyruvate); 5% by volume fetal calf serum (FCS); 1% nonessential amino acids) to which the geniticin G418 selection marker had been added [all cell culture methods were carried out by standard methods; Sambrook, J., Fritsch, E. F., and Maniatis, T. (1989), Molecular cloning: A laboratory manual. Cold Spring Harbour Laboratory Press]. In order to test the effect of substances on the inhibition of APP processing, about 20 000 cells were diluted in a 96 multititer plate. The next day, the culture medium was removed and replaced by biotin- and serum-free medium, in which the substances were diluted to reach a concentration of 10 μM with a dimethyl sulfoxide (DMSO) content of 0.5%. 0.5% DMSO served as control. For substances showing inhibition of the Aβ generation, additionally dose-effect relations were investigated by using different concentrations. After 16 h, the supernatant was removed and analyzed.
b) Detection of Aβ with the IGEN Analyzer
The total amount of Aβ was detected using the following components: 50 μl of cell culture supernatant were mixed with 25 μl of biotinylated antibody 4G8 (recognizes amino acid 17-25 of Aβ), 25 μl of ruthenium complex-labeled antibody 6E10 (recognizes the N terminus of Aβ) and 50 μl of magnetic streptavidin-coupled beads. Aβ40 was detected by using the following components: 50 μl of cell culture supernatant were mixed with 25 μl of biotinylated antibody G2-10 (recognizes the C terminus of Aβ40), 25 μl of ruthenium complex-labeled antibody W02 (recognizes the N terminus of Aβ), and 50 μl of magnetic streptavidin-coupled beads. In parallel, serial dilutions were made with synthetic A040. The samples were shaken at room temperature and then measured using an IGEN analyzer. Typically, each sample was measured three times in at least two independent experiments. The antibodies and solutions used were prepared according to the instructions of the manufacturer of the analyzer, IGEN, Inc. (Gaitersburg, Md., USA). The measurement was likewise carried out as stated by the manufacturer.

As a reminder, the IC50 is the concentration needed to halve the response being measured. Low values mean higher potency, high ones lower potency.

On to `C[C@H](COC(=O)N1CCC(O)CC1)[C@@H](c1cc(F)ccc1F)S(=O)(=O)c1ccc(Cl)cc1` (single isomer, unassigned) [Example 43], for which the 50% inhibitory concentration (IC50) fell in the range of 10 to 100 nM.
In the case of `C[C@H](COC(=O)N1CCN(C)CC1)[C@@H](c1cc(F)ccc1F)S(=O)(=O)c1ccc(Cl)cc1` (single isomer, unassigned) [Example 95], the IC50 is 10 to 100 nM.
With `CC(COC(=O)N1CCNC(=O)C1)C(c1cc(F)ccc1F)S(=O)(=O)c1ccc(Br)cc1` (single isomer, unassigned) [Example 100] the figure was 10 to 100 nM; with `C[C@H](COC(=O)N1CCC(CCO)CC1)[C@@H](c1cc(F)ccc1F)S(=O)(=O)c1ccc(Cl)cc1` (single isomer, unassigned) [Example 42], 10 to 100 nM.
